Results: the supplement of paper PMC10307832

Key:
Assay in all cases: relative viability (nuclei count vs DMSO), 5 days (fraction); higher = more cells survive
A-427 = test system: A-427
Summary of the method: (§1)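 Relative viability equals treated-well nuclei counts divided by vehicle-well nuclei counts. Counts came from 4× images of lung cancer cell lines grown in 1536-well plates for 5 days after pin-tool dosing on the day after seeding. Dosing used one drug alone or a fixed anchor-drug dose plus five library-drug doses (not always all listed) in √10 steps, and values are medians of duplicate plates.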

CAL-12T = test system: CAL-12T
Summary of the method: as §1

LK-2 = test system: LK-2
Summary of the method: as §1

NCI-H1623 = test system: NCI-H1623
Summary of the method: as §1

NCI-H1648 = test system: NCI-H1648
Summary of the method: as §1

NCI-H1650 = test system: NCI-H1650
Summary of the method: as §1

NCI-H1734 = test system: NCI-H1734
Summary of the method: as §1

NCI-H2009 = test system: NCI-H2009
Summary of the method: as §1

UMC-11 = test system: UMC-11
Summary of the method: as §1

CCN(CC)CCCCNc1ncc2cc(-c3cc(OC)cc(OC)c3)c(NC(=O)NC(C)(C)C)nc2n1 + COc1cccc2cc(-c3nc([C@H]4CC[C@H](C(=O)O)CC4)n4ncnc(N)c34)[nH]c12 [OSI-027] (partner 0.5 µM)
relative viability (A-427; first compound 0.01 µM): 0.457 | relative viability (A-427; first compound 0.03162 µM): 0.435 | relative viability (A-427; first compound 0.1 µM): 0.427 | relative viability (A-427; first compound 0.3162 µM): 0.364 | relative viability (A-427; first compound 1 µM): 0.298 | relative viability (CAL-12T; first compound 0.01 µM): 0.623 | relative viability (CAL-12T; first compound 0.03162 µM): 0.736 | relative viability (CAL-12T; first compound 0.1 µM): 0.789 | relative viability (CAL-12T; first compound 0.3162 µM): 0.836 | relative viability (CAL-12T; first compound 1 µM): 0.576 | relative viability (LK-2; first compound 0.01 µM): 0.193 | relative viability (LK-2; first compound 0.03162 µM): 0.192 | relative viability (LK-2; first compound 0.1 µM): 0.163 | relative viability (LK-2; first compound 0.3162 µM): 0.165 | relative viability (LK-2; first compound 1 µM): 0.196 | relative viability (NCI-H1623; first compound 0.01 µM): 0.419 | relative viability (NCI-H1623; first compound 0.03162 µM): 0.385 | relative viability (NCI-H1623; first compound 0.1 µM): 0.381 | relative viability (NCI-H1623; first compound 0.3162 µM): 0.469 | relative viability (NCI-H1623; first compound 1 µM): 0.383 | relative viability (NCI-H1648; first compound 0.01 µM): 0.311 | relative viability (NCI-H1648; first compound 0.03162 µM): 0.228 | relative viability (NCI-H1648; first compound 0.1 µM): 0.26 | relative viability (NCI-H1648; first compound 0.3162 µM): 0.24 | relative viability (NCI-H1648; first compound 1 µM): 0.243 | relative viability (NCI-H1650; first compound 0.01 µM): 0.7 | relative viability (NCI-H1650; first compound 0.03162 µM): 0.702 | relative viability (NCI-H1650; first compound 0.1 µM): 0.649 | relative viability (NCI-H1650; first compound 0.3162 µM): 0.624 | relative viability (NCI-H1650; first compound 1 µM): 0.4 | relative viability (NCI-H1734; first compound 0.01 µM): 0.647 | relative viability (NCI-H1734; first compound 0.03162 µM): 0.61 | relative viability (NCI-H1734; first compound 0.1 µM): 0.634 | relative viability (NCI-H1734; first compound 0.3162 µM): 0.666 | relative viability (NCI-H1734; first compound 1 µM): 0.526 | relative viability (NCI-H2009; first compound 0.01 µM): 0.678 | relative viability (NCI-H2009; first compound 0.03162 µM): 0.669 | relative viability (NCI-H2009; first compound 0.1 µM): 0.642 | relative viability (NCI-H2009; first compound 0.3162 µM): 0.675 | relative viability (NCI-H2009; first compound 1 µM): 0.604 | relative viability (UMC-11; first compound 0.01 µM): 0.508 | relative viability (UMC-11; first compound 0.03162 µM): 0.473 | relative viability (UMC-11; first compound 0.1 µM): 0.481 | relative viability (UMC-11; first compound 0.3162 µM): 0.485 | relative viability (UMC-11; first compound 1 µM): 0.443

O=c1cc(-c2cccc3c2Sc2ccccc2S3)oc(N2CCOCC2)c1 + Cc1cc(Nc2cc(N3CCN(C)CC3)nc(Sc3ccc(NC(=O)C4CC4)cc3)n2)n[nH]1 [Tozasertib] (partner 0.1 µM)
relative viability (A-427; first compound 0.08 µM): 0.176 | relative viability (A-427; first compound 0.253 µM): 0.179 | relative viability (A-427; first compound 0.8 µM): 0.196 | relative viability (A-427; first compound 8 µM): 0.204 | relative viability (CAL-12T; first compound 0.08 µM): 0.296 | relative viability (CAL-12T; first compound 0.253 µM): 0.292 | relative viability (CAL-12T; first compound 0.8 µM): 0.32 | relative viability (CAL-12T; first compound 2.53 µM): 0.232 | relative viability (CAL-12T; first compound 8 µM): 0.224 | relative viability (LK-2; first compound 0.08 µM): 0.184 | relative viability (LK-2; first compound 0.253 µM): 0.165 | relative viability (LK-2; first compound 0.8 µM): 0.176 | relative viability (LK-2; first compound 2.53 µM): 0.162 | relative viability (LK-2; first compound 8 µM): 0.16 | relative viability (NCI-H1623; first compound 0.08 µM): 0.445 | relative viability (NCI-H1623; first compound 0.253 µM): 0.414 | relative viability (NCI-H1623; first compound 0.8 µM): 0.393 | relative viability (NCI-H1623; first compound 2.53 µM): 0.4 | relative viability (NCI-H1623; first compound 8 µM): 0.43 | relative viability (NCI-H1648; first compound 0.08 µM): 0.492 | relative viability (NCI-H1648; first compound 0.253 µM): 0.386 | relative viability (NCI-H1648; first compound 0.8 µM): 0.426 | relative viability (NCI-H1648; first compound 2.53 µM): 0.411 | relative viability (NCI-H1648; first compound 8 µM): 0.399 | relative viability (NCI-H1650; first compound 0.08 µM): 0.471 | relative viability (NCI-H1650; first compound 0.253 µM): 0.458 | relative viability (NCI-H1650; first compound 0.8 µM): 0.392 | relative viability (NCI-H1650; first compound 2.53 µM): 0.294 | relative viability (NCI-H1650; first compound 8 µM): 0.326 | relative viability (NCI-H1734; first compound 0.08 µM): 0.271 | relative viability (NCI-H1734; first compound 0.253 µM): 0.261 | relative viability (NCI-H1734; first compound 0.8 µM): 0.265 | relative viability (NCI-H1734; first compound 8 µM): 0.26 | relative viability (NCI-H2009; first compound 0.08 µM): 0.74 | relative viability (NCI-H2009; first compound 0.253 µM): 0.725 | relative viability (NCI-H2009; first compound 0.8 µM): 0.8 | relative viability (NCI-H2009; first compound 2.53 µM): 0.737 | relative viability (NCI-H2009; first compound 8 µM): 0.578 | relative viability (UMC-11; first compound 0.08 µM): 0.198 | relative viability (UMC-11; first compound 0.253 µM): 0.19 | relative viability (UMC-11; first compound 0.8 µM): 0.189 | relative viability (UMC-11; first compound 2.53 µM): 0.202 | relative viability (UMC-11; first compound 8 µM): 0.234
